Experimental data taken from patent US20170226081A1, “GLUCOSE TRANSPORT INHIBITORS” (Bayer Pharma Aktiengesellschaft, priority 2014, published 2017).

target: T1, GLUT1 (Homo sapiens, UniProt P11166); test: Indirect measurement of GLUT activity by quantification of intracellular ATP levels (glucose induced ATP increase); assay type: cell-based; settings: DLD1 cells; 1 mM glucose, 1 uM Rotenone, 15 min; standardized to cytochalasin B IC50 values; read-out: IC50 regarding glucose induced ATP increase (GLUT1 inhibition)
T1 construct: endogenous in cells
T1 sequence (P11166 1-492): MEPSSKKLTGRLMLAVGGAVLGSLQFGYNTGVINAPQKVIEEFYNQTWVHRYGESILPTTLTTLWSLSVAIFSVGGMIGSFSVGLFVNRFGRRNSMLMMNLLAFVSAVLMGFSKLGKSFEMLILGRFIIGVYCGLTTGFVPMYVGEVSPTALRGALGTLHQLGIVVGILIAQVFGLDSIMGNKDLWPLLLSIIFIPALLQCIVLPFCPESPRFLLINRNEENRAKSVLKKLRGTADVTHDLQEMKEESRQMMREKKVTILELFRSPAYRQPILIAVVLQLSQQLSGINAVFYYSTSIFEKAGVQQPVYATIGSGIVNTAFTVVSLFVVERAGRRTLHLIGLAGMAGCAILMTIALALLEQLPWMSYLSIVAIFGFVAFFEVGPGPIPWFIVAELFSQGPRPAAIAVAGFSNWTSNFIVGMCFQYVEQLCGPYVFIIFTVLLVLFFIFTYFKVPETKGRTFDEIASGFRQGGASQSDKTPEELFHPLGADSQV
Text: It is well known that a combination of small-molecule inhibitors of mitochondrial electron transport chain and glucose catabolism synergistically suppress ATP production and impair cellular viability (Ulanovskaya et al., 2008, 2011; Liu, et al. 2001). We therefore used DLD1 or CHO-K1 cells in combination with an oxidative phosphorylation inhibitor to identify GLUT inhibitors. Cell lines were maintained in DMEM medium supplemented with 10% FCS and 1% Penicillin-Streptomycin solution and 2% Glutamax. The cells were treated with trypsin and seeded into 384 plates at a density of 4000 cells/well. The cells were then cultured overnight in glucose free media containing 1% FCS to reduce intracellular ATP levels. After 24 h the cells were incubated at 37° C. containing the appropriate glucose or in case of GLUT2 fructose concentration (1 mM and 30 mM respectively) with or without compounds and 1 uM Rotenone for 15 min. The CellTiter-Glo® Luminescent Cell Viability Assay from Promega was then used to measure ATP levels. Compounds able to reduce the ATP Levels within 15 min of glucose application were considered to be glucose uptake inhibitors.

In order of rising IC50:
1. Cc1nn(Cc2ccc(C#N)cc2)cc1NC(=O)c1cc(C(N)=O)nc2cc(F)c(Cl)cc12 [Example 53, 6-chloro-N^4-[1-(4-cyanobenzyl)-3-methyl-1H-pyrazol-4-yl]-7-fluoroquinoline-2,4-dicarboxamide]  4 nM
2. COc1ccc(Cn2cc(NC(=O)c3cc(C(N)=O)nc4ccccc34)c(C(F)(F)F)n2)cc1 [Example 49, N^4-[1-(4-methoxybenzyl)-3-(trifluoromethyl)-1H-pyrazol-4-yl]quinoline-2,4-dicarboxamide]  4.1 nM
3. N#Cc1ccc(Cn2cc(NC(=O)c3cc(C(N)=O)nc4cc(F)c(Cl)cc34)c(C(F)(F)F)n2)cc1 [Example 35, 6-chloro-N^4-[1-(4-cyanobenzyl)-3-(trifluoromethyl)-1H-pyrazol-4-yl]-7-fluoroquinoline-2,4-dicarboxamide]  4.4 nM
4. Cc1ccc(Cn2cc(NC(=O)c3cc(C(N)=O)nc4ccccc34)c(C)n2)cc1 [Example 54, N^4-[3-methyl-1-(4-methylbenzyl)-1H-pyrazol-4-yl]quinoline-2,4-dicarboxamide]  13 nM
5. COc1ccc(Cn2cc(NC(=O)c3cc(OC)nc4ccccc34)c(C)n2)cc1 [Example 11, 2-methoxy-N-[1-(4-methoxybenzyl)-3-methyl-1H-pyrazol-4-yl]quinoline-4-carboxamide]  21 nM
6. CCc1nn(Cc2ccc(C#N)cc2)cc1NC(=O)c1cc(C(N)=O)nc2ccccc12 [Example 60, N^4-[1-(4-cyanobenzyl)-3-ethyl-1H-pyrazol-4-yl]quinoline-2,4-dicarboxamide]  23 nM
7. CC(c1ccc(C#N)cc1)n1cc(NC(=O)c2cc(C(N)=O)nc3ccccc23)c(C(F)(F)F)n1 (racemic) [Example 40, (±)—N^4-{1-[1-(4-cyanophenyl)ethyl]-3-(trifluoromethyl)-1H-pyrazol-4-yl}quinoline-2,4-dicarboxamide]  32 nM
8. CNC(=O)c1nc(Cn2cc(NC(=O)c3cc(C(F)(F)F)nc4ccc(Br)cc34)c(C)n2)no1 [Example 69, 6-bromo-N-(3-methyl-1-{[5-(methylcarbamoyl)-1,2,4-oxadiazol-3-yl]methyl}-1H-pyrazol-4-yl)-2-(trifluoromethyl)quinoline-4-carboxamide]  64 nM
9. Cc1nn(Cc2ccc(F)c(F)c2)cc1NC(=O)c1cc(C(N)=O)nc2ccccc12 [Example 55, N^4-[1-(3,4-difluorobenzyl)-3-methyl-1H-pyrazol-4-yl]quinoline-2,4-dicarboxamide]  83 nM
10. Cc1nn(Cc2ccc(F)cc2)cc1NC(=O)c1cc(C2CC2)nc2ccc(F)cc12 [Example 6, 2-cyclopropyl-6-fluoro-N-[1-(4-fluorobenzyl)-3-methyl-1H-pyrazol-4-yl]quinoline-4-carboxamide]  125 nM
11. CS(=O)(=O)c1ccc(Cn2cc(NC(=O)c3cc(C(N)=O)nc4cc(F)ccc34)c(C(F)(F)F)n2)cc1 [Example 45, 7-fluoro-N^4-{1-[4-(methylsulfonyl)benzyl]-3-(trifluoromethyl)-1H-pyrazol-4-yl}quinoline-2,4-dicarboxamide]  126 nM
12. COc1cc(C(=O)Nc2cn(Cc3ccc(F)cc3)nc2C)c2ccccc2n1 [Example 3, N-[1-(4-fluorobenzyl)-3-methyl-1H-pyrazol-4-yl]-2-methoxyquinoline-4-carboxamide]  150 nM
13. Cc1cc(Cn2cc(NC(=O)c3cc(C(N)=O)nc4ccccc34)c(C)n2)no1 [Example 74, N^4-{3-methyl-1-[(5-methyl-1,2-oxazol-3-yl)methyl]-1H-pyrazol-4-yl}quinoline-2,4-dicarboxamide]  153 nM
14. Cc1nn(Cc2ccc(F)cc2)cc1NC(=O)c1cc(C(F)(F)F)nc2c(Cl)cc(Cl)cc12 [Example 7, 6,8-dichloro-N-[1-(4-fluorobenzyl)-3-methyl-1H-pyrazol-4-yl]-2-(trifluoromethyl)quinoline-4-carboxamide]  176 nM
15. Cc1nn(Cc2cccc(F)c2)cc1NC(=O)c1cc(C(N)=O)nc2ccccc12 [Example 56, N^4-[1-(3-fluorobenzyl)-3-methyl-1H-pyrazol-4-yl]quinoline-2,4-dicarboxamide]  193 nM
16. Cc1nc(Cn2cc(NC(=O)c3cc(C(N)=O)nc4ccccc34)c(C)n2)cs1 [Example 68, N^4-{3-methyl-1-[(2-methyl-1,3-thiazol-4-yl)methyl]-1H-pyrazol-4-yl}quinoline-2,4-dicarboxamide]  260 nM
17. Cc1nc(Cn2cc(NC(=O)c3cc(C(F)(F)F)nc4ccc(Br)cc34)c(C)n2)cs1 [Example 70, 6-bromo-N-{3-methyl-1-[(2-methyl-1,3-thiazol-4-yl)methyl]-1H-pyrazol-4-yl}-2-(trifluoromethyl)quinoline-4-carboxamide]  275 nM
18. CNC(=O)c1nc(Cn2cc(NC(=O)c3cc(C(N)=O)nc4ccccc34)c(C)n2)no1 [Example 65, N^4-(3-methyl-1-{[5-(methylcarbamoyl)-1,2,4-oxadiazol-3-yl]methyl}-1H-pyrazol-4-yl)quinoline-2,4-dicarboxamide]  301 nM
19. CCc1noc(Cn2cc(NC(=O)c3cc(C(F)(F)F)nc4ccc(Br)cc34)c(C)n2)n1 [Example 64, 6-bromo-N-{1-[(3-ethyl-1,2,4-oxadiazol-5-yl)methyl]-3-methyl-1H-pyrazol-4-yl}-2-(trifluoromethyl)quinoline-4-carboxamide]  391 nM
20. NC(=O)c1cc(C(=O)Nc2cn(Cc3ccncc3)nc2C(F)(F)F)c2ccccc2n1 [Example 41, N^4-[1-(pyridin-4-ylmethyl)-3-(trifluoromethyl)-1H-pyrazol-4-yl]quinoline-2,4-dicarboxamide]  422 nM
21. N#Cc1ccc(Cn2cc(NC(=O)c3cc(C(F)(F)F)nc4ccc(Br)cc34)c(C(N)=O)n2)cc1 [Example 28, 6-bromo-N-[3-carbamoyl-1-(4-cyanobenzyl)-1H-pyrazol-4-yl]-2-(trifluoromethyl)quinoline-4-carboxamide]  544 nM
22. Cc1nn(CC2CCCCC2)cc1NC(=O)c1cc(C(N)=O)nc2ccccc12 [Example 57, N^4-[1-(cyclohexylmethyl)-3-methyl-1H-pyrazol-4-yl]quinoline-2,4-dicarboxamide]  556 nM
23. Cc1nn(Cc2ccncc2)cc1NC(=O)c1cc(C(N)=O)nc2ccccc12 [Example 58, N^4-[3-methyl-1-(pyridin-4-ylmethyl)-1H-pyrazol-4-yl]quinoline-2,4-dicarboxamide]  702 nM
24. O=C(Nc1cn(Cc2ccc(F)cc2)nc1C(F)(F)F)c1cc(C(F)(F)F)nc2c(Cl)cc(Cl)cc12 [Example 32, 6,8-dichloro-N-[1-(4-fluorobenzyl)-3-(trifluoromethyl)-1H-pyrazol-4-yl]-2-(trifluoromethyl)quinoline-4-carboxamide]  763 nM
25. NC(=O)c1nn(Cc2ccc(F)cc2)cc1NC(=O)c1cc(C(F)(F)F)nc2ccc(Br)cc12 [Example 21, 6-bromo-N-[3-carbamoyl-1-(4-fluorobenzyl)-1H-pyrazol-4-yl]-2-(trifluoromethyl)quinoline-4-carboxamide]  1150 nM
26. O=C(NCCO)c1nn(Cc2ccc(F)cc2)cc1NC(=O)c1cc(C(F)(F)F)nc2ccc(Br)cc12 [Example 20, 6-bromo-N-{1-(4-fluorobenzyl)-3-[(2-hydroxyethyl)carbamoyl]-1H-pyrazol-4-yl}-2-(trifluoromethyl)quinoline-4-carboxamide]  2000 nM
27. O=C(Nc1cn(Cc2ccc(F)cc2)nc1C(F)(F)F)c1cc(C(F)(F)F)nc2cc(F)c(F)cc12 [Example 34, 6,7-difluoro-N-[1-(4-fluorobenzyl)-3-(trifluoromethyl)-1H-pyrazol-4-yl]-2-(trifluoromethyl)quinoline-4-carboxamide]  2040 nM
28. N#Cc1ccc(Cn2cc(NC(=O)c3cc(C(F)(F)F)nc4ccc(Br)cc34)c(C(=O)NCCO)n2)cc1 [Example 26, 6-bromo-N-{1-(4-cyanobenzyl)-3-[(2-hydroxyethyl)carbamoyl]-1H-pyrazol-4-yl}-2-(trifluoromethyl)quinoline-4-carboxamide]  7040 nM
29. COCCNC(=O)c1nn(Cc2ccc(C#N)cc2)cc1NC(=O)c1cc(C(F)(F)F)nc2ccc(Br)cc12 [Example 30, 6-bromo-N-{1-(4-cyanobenzyl)-3-[(2-methoxyethyl)carbamoyl]-1H-pyrazol-4-yl}-2-(trifluoromethyl)quinoline-4-carboxamide]  7490 nM
30. COCCNC(=O)c1nn(Cc2ccc(F)cc2)cc1NC(=O)c1cc(C(F)(F)F)nc2ccc(Br)cc12 [Example 23, 6-bromo-N-{1-(4-fluorobenzyl)-3-[(2-methoxyethyl)carbamoyl]-1H-pyrazol-4-yl}-2-(trifluoromethyl)quinoline-4-carboxamide]  20100 nM
